Measurements: patent publication US20150344427A1 (EPIZYME, INC., priority 2012, published 2015)

Assays:
[1] = test system: H3K27 trimethylation in WSU-DLCL2 cells; experiment: WSU-DLCL2 Methylation Assay (H3K27me3 ELISA); assay type: cell-based; conditions: Homo sapiens, WSUDLCL2, 96 hours incubation, H3K27me3 normalised to total Histone H3
Excerpt: WSU-DLCL2 suspension cells were purchased from DSMZ (German Collection of Microorganisms and Cell Cultures, Braunschweig, Germany). RPMI/Glutamax Medium, Penicillin-Streptomycin, Heat Inactivated Fetal Bovine Serum, and D-PBS were purchased from Life Technologies, Grand Island, N.Y., USA. Extraction Buffer and Neutralization Buffer (5×) were purchased from Active Motif, Carlsbad, Calif., USA. Rabbit anti-Histone H3 antibody was purchased from Abcam, Cambridge, Mass., USA. Rabbit anti-H3K27me3 and HRP-conjugated anti-rabbit-IgG were purchased from Cell Signaling Technology, Danvers, Mass., USA. TMB “Super Sensitive” substrate was sourced from BioFX Laboratories, Owings Mills, Md., USA. IgG-free Bovine Serum Albumin was purchased from Jackson ImmunoResearch, West Grove, Pa., USA. PBS with Tween (10×PBST) was purchased from KPL, Gaithersburg, Md., USA. Sulfuric Acid was purchased from Ricca Chemical, Arlington, Tex., USA. Immulon ELISA plates were purchased from Thermo, Rochester, N.Y., USA. V-bottom cell culture plates were purchased from Corning Inc., Corning, N.Y., USA. V-bottom polypropylene plates were purchased from Greiner Bio-One, Monroe, N.C., USA.
(§1) WSU-DLCL2 suspension cells were maintained in growth medium (RPMI 1640 supplemented with 10% v/v heat inactivated fetal bovine serum and 100 units/mL penicillin-streptomycin) and cultured at 37° C. under 5% CO2 Under assay conditions, cells were incubated in Assay Medium (RPMI 1640 supplemented with 20% v/v heat inactivated fetal bovine serum and 100 units/mL penicillin-streptomycin) at 37° C. under 5% CO2 on a plate shaker.
WSU-DLCL2 cells were seeded in assay medium at a concentration of 50,000 cells per mL to a 96-well V-bottom cell culture plate with 200 μL per well. Compound (1 μL) from 96 well source plates was added directly to V-bottom cell plate. Plates were incubated on a titer-plate shaker at 37° C., 5% CO2 for 96 hours. After four days of incubation, plates were spun at 241×g for five minutes and medium was aspirated gently from each well of cell plate without disturbing cell pellet. Pellet was resuspended in 200 μL DPBS and plates were spun again at 241×g for five minutes. The supernatant was aspirated and cold (4° C.) Extraction buffer (100 μL) was added per well. Plates were incubated at 4° C. on orbital shaker for two hours. Plates were spun at 3427×g×10 minutes. Supernatant (80 μL per well) was transferred to its respective well in 96 well V-bottom polypropylene plate. Neutralization Buffer 5× (20 μL per well) was added to V-bottom polypropylene plate containing supernatant. V-bottom polypropylene plates containing crude histone preparation (CHP) were incubated on orbital shaker x five minutes. Crude Histone Preparations were added (2 μL per well) to each respective well into duplicate 96 well ELISA plates containing 100 μL Coating Buffer (1×PBS+BSA 0.05% w/v). Plates were sealed and incubated overnight at 4° C. The following day, plates were washed three times with 300 μL per well 1×PBST. Wells were blocked for two hours with 300 μL per well ELISA Diluent ((PBS (1×) BSA (2% w/v) and Tween20 (0.05% v/v)). Plates were washed three times with 1×PBST. For the Histone H3 detection plate, 100 μL per well were added of anti-Histone-H3 antibody (Abcam, ab1791) diluted 1:10,000 in ELISA Diluent. For H3K27 trimethylation detection plate, 100 μL per well were added of anti-H3K27me3 diluted 1:2000 in ELISA diluent. Plates were incubated for 90 minutes at room temperature. Plates were washed three times with 300 μL 1×PBST per well. For Histone H3 detection, 100 μL of HRP-conjugated anti-rabbit IgG antibody diluted to 1:6000 in ELISA diluent was added per well. For H3K27me3 detection, 100 μL of HRP conjugated anti-rabbit IgG antibody diluted to 1:4000 in ELISA diluent was added per well. Plates were incubated at room temperature for 90 minutes. Plates were washed four times with 1×PBST 300 μL per well. TMB substrate 100 μL was added per well. […]

[2] = test system: WSU-DLCL2 cells; experiment: Cell Proliferation Analysis, WSU-DLCL2; assay type: cell-based; conditions: Homo sapiens, WSUDLCL2, 144 h, 6 days, Cell Titer Glo
Excerpt: WSU-DLCL2 suspension cells were purchased from DSMZ (German Collection of Microorganisms and Cell Cultures, Braunschweig, Germany). RPMI/Glutamax Medium, Penicillin-Streptomycin, Heat Inactivated Fetal Bovine Serum were purchased from Life Technologies, Grand Island, N.Y., USA. V-bottom polypropylene 384-well plates were purchased from Greiner Bio-One, Monroe, N.C., USA. Cell culture 384-well white opaque plates were purchased from Perkin Elmer, Waltham, Mass., USA. Cell-Titer Glo® was purchased from Promega Corporation, Madison, Wis., USA. SpectraMax M5 plate reader was purchased from Molecular Devices LLC, Sunnyvale, Calif., USA.
as §1, with “and” for “and 100 units/mL penicillin-streptomycin) and”, “CO2.” for “CO2”, “CO2.” for “CO2 on a plate shaker.”
For the assessment of the effect of compounds on the proliferation of the WSU-DLCL2 cell line, exponentially growing cells were plated in 384-well white opaque plates at a density of 1250 cell/ml in a final volume of 50 μl of assay medium. A compound source plate was prepared by performing triplicate nine-point 3-fold serial dilutions in DMSO, beginning at 10 mM (final top concentration of compound in the assay was 20 μM and the DMSO was 0.2%). A 100 nL aliquot from the compound stock plate was added to its respective well in the cell plate. […] After addition of compounds, assay plates were incubated for 6 days at 37° C., 5% CO2, relative humidity >90% for 6 days. Cell viability was measured by quantization of ATP present in the cell cultures, adding 35 μl of Cell Titer Glo® reagent to the cell plates. Luminescence was read in the SpectraMax M5. The concentration inhibiting cell viability by 50% was determined using a 4-parametric fit of the normalized dose response curves.

[3] = target: T1, wild-type EZH2 (PRC2 enzyme) (Homo sapiens, UniProt Q15910); experiment: PRC2 enzyme assay on peptide substrate, wild-type EZH2; assay type: biochemical; conditions: wild-type PRC2 enzyme 4 nM, H3K27me0 peptide, 3H-SAM Flashplate; read-out: WT EZH2 IC50
T1 construct: made in house; host or cells: Spodoptera frugiperda (sf9) cells, baculovirus
T1 sequence (Q15910 whole entry): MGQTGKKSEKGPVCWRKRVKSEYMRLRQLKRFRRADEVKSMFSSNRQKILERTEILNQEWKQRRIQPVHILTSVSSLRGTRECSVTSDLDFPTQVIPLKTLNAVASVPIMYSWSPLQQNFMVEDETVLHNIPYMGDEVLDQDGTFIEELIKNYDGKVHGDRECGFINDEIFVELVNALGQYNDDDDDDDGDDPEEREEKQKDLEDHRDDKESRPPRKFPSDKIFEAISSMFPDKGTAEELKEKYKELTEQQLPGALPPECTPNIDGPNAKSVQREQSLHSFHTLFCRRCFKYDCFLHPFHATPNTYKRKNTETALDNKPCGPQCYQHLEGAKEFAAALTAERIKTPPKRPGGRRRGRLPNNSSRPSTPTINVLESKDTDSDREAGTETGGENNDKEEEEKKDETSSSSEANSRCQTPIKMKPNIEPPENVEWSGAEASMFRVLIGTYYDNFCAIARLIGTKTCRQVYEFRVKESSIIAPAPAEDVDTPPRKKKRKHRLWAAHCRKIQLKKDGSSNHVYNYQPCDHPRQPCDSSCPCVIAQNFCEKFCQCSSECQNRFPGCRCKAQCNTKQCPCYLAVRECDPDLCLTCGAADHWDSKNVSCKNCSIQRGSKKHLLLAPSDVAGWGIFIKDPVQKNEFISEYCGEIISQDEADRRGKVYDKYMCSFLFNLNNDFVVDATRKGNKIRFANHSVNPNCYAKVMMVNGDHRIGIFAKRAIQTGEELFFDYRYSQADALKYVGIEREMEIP
T1 sequence (O75530 whole entry partner): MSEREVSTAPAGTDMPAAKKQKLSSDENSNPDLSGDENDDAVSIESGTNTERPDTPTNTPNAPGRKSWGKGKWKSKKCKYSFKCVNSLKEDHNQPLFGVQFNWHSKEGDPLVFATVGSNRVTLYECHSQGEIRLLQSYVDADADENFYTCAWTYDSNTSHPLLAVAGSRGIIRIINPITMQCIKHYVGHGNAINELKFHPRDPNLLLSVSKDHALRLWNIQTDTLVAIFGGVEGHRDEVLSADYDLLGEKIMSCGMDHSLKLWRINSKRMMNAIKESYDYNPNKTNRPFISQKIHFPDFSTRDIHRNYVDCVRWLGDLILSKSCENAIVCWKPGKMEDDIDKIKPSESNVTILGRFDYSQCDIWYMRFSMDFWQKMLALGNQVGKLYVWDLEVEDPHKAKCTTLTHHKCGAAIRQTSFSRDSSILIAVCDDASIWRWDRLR
T1 sequence (Q15022 whole entry partner): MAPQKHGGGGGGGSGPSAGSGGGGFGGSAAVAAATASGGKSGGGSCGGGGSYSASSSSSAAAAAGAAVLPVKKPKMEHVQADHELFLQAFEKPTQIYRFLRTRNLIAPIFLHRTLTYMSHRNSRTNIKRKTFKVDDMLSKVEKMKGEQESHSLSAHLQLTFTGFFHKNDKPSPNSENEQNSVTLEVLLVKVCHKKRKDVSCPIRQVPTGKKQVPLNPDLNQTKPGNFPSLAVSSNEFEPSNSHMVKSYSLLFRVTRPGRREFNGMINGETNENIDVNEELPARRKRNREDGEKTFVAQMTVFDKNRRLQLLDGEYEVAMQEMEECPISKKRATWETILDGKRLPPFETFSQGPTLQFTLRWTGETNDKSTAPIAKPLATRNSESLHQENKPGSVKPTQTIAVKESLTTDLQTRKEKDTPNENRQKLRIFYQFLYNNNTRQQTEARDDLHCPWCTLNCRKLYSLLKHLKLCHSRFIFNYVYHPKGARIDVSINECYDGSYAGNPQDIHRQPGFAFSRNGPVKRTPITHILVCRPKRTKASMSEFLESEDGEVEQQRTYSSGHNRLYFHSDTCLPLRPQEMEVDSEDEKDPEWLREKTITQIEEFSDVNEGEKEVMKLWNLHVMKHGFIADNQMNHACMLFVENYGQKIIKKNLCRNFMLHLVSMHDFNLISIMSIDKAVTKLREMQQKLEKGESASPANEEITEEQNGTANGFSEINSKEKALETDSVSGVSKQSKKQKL
T1 sequence (Q09028 whole entry partner): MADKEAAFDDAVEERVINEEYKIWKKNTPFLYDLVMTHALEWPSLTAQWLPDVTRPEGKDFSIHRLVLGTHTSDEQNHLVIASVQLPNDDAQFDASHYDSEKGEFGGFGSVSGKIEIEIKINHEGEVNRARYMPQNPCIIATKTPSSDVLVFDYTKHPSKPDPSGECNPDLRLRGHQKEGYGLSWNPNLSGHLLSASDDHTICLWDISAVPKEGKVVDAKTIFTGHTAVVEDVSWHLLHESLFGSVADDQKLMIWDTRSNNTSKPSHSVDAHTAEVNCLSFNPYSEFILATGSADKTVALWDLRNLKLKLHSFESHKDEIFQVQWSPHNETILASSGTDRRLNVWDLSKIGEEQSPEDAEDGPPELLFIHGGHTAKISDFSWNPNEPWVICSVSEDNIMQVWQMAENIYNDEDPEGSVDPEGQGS
Excerpt: (§2) General Materials. S-adenosylmethionine (SAM), S-adenosylhomocyteine (SAH), bicine, KCl, Tween20, dimethylsulfoxide (DMSO) and bovine skin gelatin (BSG) were purchased from Sigma-Aldrich at the highest level of purity possible. Dithiothreitol (DTT) was purchased from EMD. ^3H-SAM was purchased from American Radiolabeled Chemicals with a specific activity of 80 Ci/mmol. 384-well streptavidin Flashplates were purchased from PerkinElmer.
(§3) Peptides representative of human histone H3 residues 21-44 containing either an unmodified lysine 27 (H3K27me0) or dimethylated lysine 27 (H3K27me2) were synthesized with a C-terminal G(K-biotin) linker-affinity tag motif and a C-terminal amide cap by 21st Century Biochemicals. […] The sequences are listed below.
(§4) Human PRC2 enzymes were purified as 4-component enzyme complexes co-expressed in Spodoptera frugiperda (sf9) cells using a baculovirus expression system. […] The EED subunit contained an N-terminal FLAG tag that was used to purify the entire 4-component complex from sf9 cell lysates.
(§5) The assays were all performed in a buffer consisting of 20 mM bicine (pH=7.6), 0.5 mM DTT, 0.005% BSG and 0.002% Tween20, prepared on the day of use. Compounds in 100% DMSO (1 μL) were spotted into polypropylene 384-well V-bottom plates (Greiner) using a Platemate 2×3 outfitted with a 384-channel pipet head (Thermo). DMSO (1 μL) was added to columns 11, 12, 23, 24, rows A-H for the maximum signal control, and SAH, a known product and inhibitor of PRC2 (1 μL) was added to columns 11,12, 23, 24, rows I-P for the minimum signal control. A cocktail (40 μL) containing the wild-type PRC2 enzyme and H3K27me0 peptide or any of the Y641 mutant enzymes and H3K27me2 peptide was added by Multidrop Combi (Thermo). The compounds were allowed to incubate with PRC2 for 30 min at 25° C., then a cocktail (10 μL) containing a mixture of non-radioactive and ^3H-SAM was added to initiate the reaction (final volume=51 μL). In all cases, the final concentrations were as follows: wild-type or mutant PRC2 enzyme was 4 nM, SAH in the minimum signal control wells was 1 mM and the DMSO concentration was 1%. The assays were stopped by the addition of non-radioactive SAM (10 μL) to a final concentration of 600 μM, which dilutes the ^3H-SAM to a level where its incorporation into the peptide substrate is no longer detectable. 50 μL of the reaction in the 384-well polypropylene plate was then transferred to a 384-well Flashplate and the biotinylated peptides were allowed to bind to the streptavidin surface for at least 1 h before being washed three times with 0.1% Tween20 in a Biotek ELx405 plate washer. The plates were then read in a PerkinElmer TopCount platereader to measure the quantity of ^3H-labeled peptide bound to the Flashplate surface, measured as disintegrations per minute (dpm) or alternatively, referred to as counts per minute (cpm).
(§6) Where dpm=disintegrations per minute, cmpd=signal in assay well, and min and max are the respective minimum and maximum signal controls.
(§7) Where top and bottom are the normally allowed to float, but may be fixed at 100 or 0 respectively in a 3-parameter fit. The Hill Coefficient normally allowed to float but may also be fixed at 1 in a 3-parameter fit. Y is the % inhibition and X is the compound concentration.

[4] = target: T2, EZH2 Y641F mutant (PRC2 enzyme) (Homo sapiens, UniProt Q15910, Y641F); experiment: PRC2 enzyme assay on peptide substrate, EZH2 Y641F mutant; assay type: biochemical; conditions: Y641F mutant PRC2 enzyme 4 nM, H3K27me2 peptide, 3H-SAM Flashplate
T2 construct: made in house; host or cells: Spodoptera frugiperda (sf9) cells, baculovirus
T2 sequence (Q15910 whole entry Y641F): as the sequence (Q15910 whole entry) above, with Y641F counted along it
T2 sequence (O75530 whole entry partner): as the sequence (O75530 whole entry partner) above
T2 sequence (Q15022 whole entry partner): as the sequence (Q15022 whole entry partner) above
T2 sequence (Q09028 whole entry partner): as the sequence (Q09028 whole entry partner) above
Excerpt: as §2, §3, §4, §5, §6, §7

SMILES: CCN(c1cc(-c2ccc(CN3CCOCC3)cc2)cc(C(=O)NCc2c(C)[nH]c(C)cc2=O)c1C)C1CCOCC1 [Compound 2, N-((2,6-dimethyl-4-oxo-1,4-dihydropyridin-3-yl)methyl)-5-(ethyl(tetrahydro-2H-pyran-4-yl)amino)-4-methyl-4′-(morpholinomethyl)-[1,1′-biphenyl]-3-carboxamide]
- IC50 [1]: 8040 nM
- IC50 [2]: 19500 nM

SMILES: CCN(c1cc(-c2ccc(CN3CCOCC3)cc2)cc(C(=O)NCc2c(Cl)[nH]c(C)cc2=O)c1C)C1CCOCC1 [Compound 4, N-((2-chloro-6-methyl-4-oxo-1,4-dihydropyridin-3-yl)methyl)-5-(ethyl(tetrahydro-2H-pyran-4-yl)amino)-4-methyl-4′-(morpholinomethyl)-[1,1′-biphenyl]-3-carboxamide]
- IC50 [1]: 9070 nM
- IC50 [2]: 6720 nM

SMILES: CCN(c1cc(C#CCN2CCOCC2)cc(C(=O)NCc2c(C)[nH]c(C)cc2=O)c1C)[C@H]1CC[C@H](N(C)C)CC1 [Compound 95]
- IC50 [3]: 17 nM
- IC50 [4]: 12 nM
- IC50 [1]: 11400 nM

SMILES: CCN(c1cc(C#CCN2CCOCC2)cc(C(=O)NCc2c(Cl)[nH]c(C)cc2=O)c1C)[C@H]1CC[C@H](N(C)C)CC1 [Compound 96]
- IC50 [3]: 130 nM
- IC50 [4]: 118 nM
- IC50 [1]: 4300 nM

SMILES: CCN(c1cc(C#CC2(C)COC2)cc(C(=O)NCc2c(C)[nH]c(C)cc2=O)c1C)[C@H]1CC[C@H](N(C)C)CC1 [Compound 97]
- IC50 [3]: 5 nM
- IC50 [4]: 8 nM
- IC50 [1]: 9200 nM

SMILES: CCN(c1cc(-c2ccc(CN3CCOCC3)cc2)cc(C(=O)NCc2c(C)[nH]c(C)cc2=O)c1C)[C@H]1CC[C@H](N(C)C)CC1 [Compound 98]
- IC50 [1]: 3100 nM
- IC50 [2]: 4400 nM

SMILES: CCN(c1cc(Cl)cc(C(=O)NCc2c(C)[nH]c(C)cc2=O)c1C)[C@H]1CC[C@H](N(C)Cc2cccc(OC)c2)CC1 [Compound 99]
- IC50 [3]: 1 nM
- IC50 [4]: 5 nM
- IC50 [1]: 560 nM

SMILES: CCN(c1cc(Cl)cc(C(=O)NCc2c(Cl)[nH]c(C)cc2=O)c1C)[C@H]1CC[C@H](N(C)Cc2cccc(OC)c2)CC1 [Compound 101]
- IC50 [3]: 15 nM
- IC50 [4]: 10 nM
- IC50 [1]: 3000 nM

SMILES: CCN(c1cc(-c2ccc(OCCOC)cc2)cc(C(=O)NCc2c(Cl)[nH]c(C)cc2=O)c1C)[C@H]1CC[C@H](N(C)CCOC)CC1 [Compound 102]
- IC50 [3]: 150 nM
- IC50 [4]: 93 nM
- IC50 [1]: 10800 nM

SMILES: CCN(c1cc(Cl)cc(C(=O)NCc2c(C)[nH]c(C)cc2=O)c1C)C1CCN(CCOC)CC1 [Compound 103]
- IC50 [3]: 360 nM
- IC50 [4]: 341 nM
- IC50 [1]: 41300 nM

SMILES: CCN(c1cc(Cl)cc(C(=O)NCc2c(Cl)[nH]c(C)cc2=O)c1C)C1CCN(CCOC)CC1 [Compound 104]
- IC50 [3]: 870 nM
- IC50 [4]: 598 nM
- IC50 [1]: 49500 nM
